This passage reports IC50 results from US10717734B2, “Indole and azaindole haloallylamine derivative inhibitors of lysyl oxidases and uses thereof” (PHARMAXIS LTD., priority 2016, dated 2020).

What all share (format): biochemical
The target of test [1] is Recombinant human MAO-B (Homo sapiens (Human), UniProt P27338). As to the kind of experiment: Human recombinant MAO-B inhibition. As to conditions: benzylamine 100 μM. The procedure: Method to Determine the Ability of Compounds of Formula I to Inhibit Human Recombinant MAO-B
The specificity of the compounds of this invention was tested by determining their ability to inhibit MAO-B activities in vitro. Recombinant human MAO-B (0.06 mg/mL; Sigma Aldrich) was used as source of MAO-B enzyme activities. The assay was performed in a similar way as for human SSAO/VAP-1 (Example 36) except, the substrate benzylamine was used at 100 μM.

The target in test [2] is Human LOXL2 (Homo sapiens (Human), UniProt Q9Y4K0). As to the kind of experiment: LOXL2 inhibition, peroxidase-coupled Amplex Red amine oxidase assay. The following applies: 30 min preincubation at 37° C., putrescine substrate. From the text:
(§1) Method to Determine the Ability of Compounds of the Invention to Inhibit LOX and LOXL1-4 from Different Sources
(§2) Lysyl oxidase (LOX) is an extracellular copper dependent enzyme which oxidizes peptidyl lysine and hydroxylysine residues in collagen and lysine residues in elastin to produce peptidyl alpha-aminoadipic-delta-semialdehydes. […] There are five LOX family members; these are LOX, LOXL1, LOXL2, LOXL3 and LOXL4. LOX and LOXL family members can be acquired as recombinant active proteins from commercial sources, or extracted from animal tissues like bovine aorta, tendons, pig skin; or prepared from cell cultures. The inhibitory effects of the compounds of the present invention were tested against the given LOX-LOXL preparation using a high-throughput coupled colorimetric method (Holt A. and Palcic M., A peroxidase-coupled continuous absorbance plate-reader assay for flavin monoamine oxidases, copper-containing amine oxidases and related enzymes. Nat. Protoc. 2006; 1: 2498-2505). The assay was developed using either 384 or 96 well format. Briefly, in a standard 384 well plate assay 25 μL of a dilution of any of the isoenzymes and orthologues in 1.2 M urea, 50 mM sodium borate buffer (pH 8.2) were added into each well in the presence of 1 μM mofegiline and 0.5 mM pargyline (to inhibit SSAO and MAO-B and MAO-A, respectively). Test compounds were dissolved in DMSO and tested in a Concentration Response Curve (CRC) with 11 data points, typically in the micromolar or nanomolar range after incubation with the enzyme for 30 min at 37° C. Twenty five μL of a reaction mixture containing twice the KM concentration of putrescine (Sigma Aldrich, e.g. 20 mM for LOX, or 10 mM for LOXL2 and LOXL3), 120 μM Amplex Red (Sigma Aldrich) and 1.5 U/mL horseradish peroxidase (Sigma Aldrich) prepared in 1.2 M urea, 50 mM sodium borate buffer (pH 8.2) were then added to the corresponding wells. The above volumes were doubled in the case of 96 wells plate. The fluorescence (RFU) was read every 2.5 min for 30 min at a range of temperatures from 37° to 45° C., excitation 565 nm and emission 590 (Optima; BMG labtech). The slope of the kinetics for each well was calculated using MARS data analysis software (BMG labtech) and this value was used to deduce the IC50 value (Dotmatics).

Test [3] has as its target Human recombinant SSAO/VAP-1 (Homo sapiens (Human), UniProt Q16853). As to the kind of experiment: Human recombinant SSAO/VAP-1 amine oxidase inhibition. As to conditions: 30 min preincubation at 37° C., 600 μM benzylamine. The procedure: Method to Determine the Ability of Compounds of Formula I to Inhibit Human Recombinant SSAO/VAP-1
Human recombinant SSAO/VAP-1 amine oxidase activity was determined using the coupled colorimetric method as described for monoamine oxidase, copper-containing amine oxidases and related enzymes (Holt A. and Palcic M., A peroxidase-coupled continuous absorbance plate-reader assay for flavin monoamine oxidases, copper-containing amine oxidases and related enzymes. Nat Protoc 2006; 1: 2498-2505). Briefly, a cloned cDNA template corresponding to residues 34-763 of human SSAO/VAP-1, and incorporating a mouse Ig kappa (κ) signal sequence, N-terminal flag epitope tag and tobacco etch virus (TEV) cleavage site, was assembled in a mammalian expression vector (pLO-CMV) by Geneart AG. This vector containing human SSAO/VAP-1 residues was transfected into CHO-K1 glycosylation mutant cell line, Lec 8. A clone stably expressing human SSAO/VAP-1 was isolated and cultured in large scale. Active human SSAO/VAP-1 was purified and recovered using immunoaffinity chromatography. This was used as the source for SSAO/VAP-1 activity. A high-throughput colorimetric assay was developed using either 96 or 384 well format. Briefly, in a standard 96 well plate assay 50 μL of purified human SSAO/VAP-1 (0.25 μg/mL) in 0.1 M sodium phosphate buffer (pH 7.4) was added into each well. Test compounds were dissolved in DMSO and tested in a Concentration Response Curve (CRC) with 4-11 data points, typically in the micromolar or nanomolar range after incubation with human SSAO/VAP-1 for 30 min at 37° C. After 30 min incubation, 50 μL of the reaction mixture containing 600 μM benzylamine (Sigma Aldrich), 120 μM Amplex Red (Sigma Aldrich) and 1.5 U/mL horseradish peroxidase (Sigma Aldrich) prepared in 0.1 M sodium phosphate buffer (pH 7.4) were added to the corresponding well. The fluorescence unit (RFU) was read every 2.5 min for 30 min at 37° C. excitation 565 nm and emission 590 (Optima; BMG labtech). The slope of the kinetics for each well was calculated using MARS data analysis software (BMG labtech) and this value was used to deduce the IC50 value (Dotmatics).

Test [4] deals with Bovine LOX (Bos taurus (Bovine), UniProt P33072). The experiment in a line: LOX inhibition, peroxidase-coupled Amplex Red amine oxidase assay. The following applies: 30 min preincubation at 37° C., putrescine substrate.
Source text: as §1
as §2, with “Test compounds were dissolved in DMSO and tested in a Concentration Response Curve (CRC) with 11 data points, typically in the micromolar or nanomolar range after incubation with the enzyme for 30 min at 37° C.” left out

Where a name gives a salt, the structure may show the parent alone.

Chain of Human recombinant SSAO/VAP-1 (Q16853 34-763): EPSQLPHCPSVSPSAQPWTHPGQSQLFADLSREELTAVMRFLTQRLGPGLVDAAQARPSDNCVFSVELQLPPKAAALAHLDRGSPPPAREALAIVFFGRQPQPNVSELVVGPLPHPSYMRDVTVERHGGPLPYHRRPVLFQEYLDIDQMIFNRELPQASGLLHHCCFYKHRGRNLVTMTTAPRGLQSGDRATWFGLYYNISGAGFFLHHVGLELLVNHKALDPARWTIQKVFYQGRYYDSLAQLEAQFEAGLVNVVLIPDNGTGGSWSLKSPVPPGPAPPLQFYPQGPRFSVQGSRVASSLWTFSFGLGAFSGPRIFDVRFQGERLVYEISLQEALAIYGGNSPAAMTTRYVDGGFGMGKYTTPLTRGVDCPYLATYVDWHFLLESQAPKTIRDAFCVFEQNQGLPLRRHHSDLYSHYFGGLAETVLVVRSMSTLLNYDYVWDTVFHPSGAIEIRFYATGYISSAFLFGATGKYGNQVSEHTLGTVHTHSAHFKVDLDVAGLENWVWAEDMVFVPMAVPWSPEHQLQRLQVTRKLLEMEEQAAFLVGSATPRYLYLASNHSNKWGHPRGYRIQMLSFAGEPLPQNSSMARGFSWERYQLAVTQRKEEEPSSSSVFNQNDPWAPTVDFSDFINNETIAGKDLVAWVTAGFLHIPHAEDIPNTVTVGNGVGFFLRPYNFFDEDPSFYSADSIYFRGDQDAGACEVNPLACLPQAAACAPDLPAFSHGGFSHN
Chain of Human LOXL2 (Q9Y4K0 26-774): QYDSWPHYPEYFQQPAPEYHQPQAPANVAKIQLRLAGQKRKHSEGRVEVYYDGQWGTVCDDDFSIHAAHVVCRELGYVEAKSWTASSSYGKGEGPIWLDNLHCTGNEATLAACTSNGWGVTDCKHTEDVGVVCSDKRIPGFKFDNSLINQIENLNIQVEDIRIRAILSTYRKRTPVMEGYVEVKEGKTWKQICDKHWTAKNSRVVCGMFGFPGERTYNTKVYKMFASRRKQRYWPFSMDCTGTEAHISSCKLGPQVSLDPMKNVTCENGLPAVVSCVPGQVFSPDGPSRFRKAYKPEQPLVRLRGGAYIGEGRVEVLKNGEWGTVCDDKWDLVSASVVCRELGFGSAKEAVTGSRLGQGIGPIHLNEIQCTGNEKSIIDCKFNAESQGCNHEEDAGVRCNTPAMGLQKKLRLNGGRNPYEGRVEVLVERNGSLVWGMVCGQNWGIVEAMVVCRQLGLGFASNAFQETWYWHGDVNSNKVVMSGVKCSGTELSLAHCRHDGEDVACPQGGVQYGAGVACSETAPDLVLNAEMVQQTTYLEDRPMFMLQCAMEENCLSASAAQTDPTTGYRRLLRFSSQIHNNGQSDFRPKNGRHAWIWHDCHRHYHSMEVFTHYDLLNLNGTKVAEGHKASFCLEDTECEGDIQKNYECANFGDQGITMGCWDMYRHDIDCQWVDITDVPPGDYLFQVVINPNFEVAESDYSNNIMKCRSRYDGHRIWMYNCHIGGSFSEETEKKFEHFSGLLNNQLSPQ
Chain of Recombinant human MAO-B (P27338 whole entry): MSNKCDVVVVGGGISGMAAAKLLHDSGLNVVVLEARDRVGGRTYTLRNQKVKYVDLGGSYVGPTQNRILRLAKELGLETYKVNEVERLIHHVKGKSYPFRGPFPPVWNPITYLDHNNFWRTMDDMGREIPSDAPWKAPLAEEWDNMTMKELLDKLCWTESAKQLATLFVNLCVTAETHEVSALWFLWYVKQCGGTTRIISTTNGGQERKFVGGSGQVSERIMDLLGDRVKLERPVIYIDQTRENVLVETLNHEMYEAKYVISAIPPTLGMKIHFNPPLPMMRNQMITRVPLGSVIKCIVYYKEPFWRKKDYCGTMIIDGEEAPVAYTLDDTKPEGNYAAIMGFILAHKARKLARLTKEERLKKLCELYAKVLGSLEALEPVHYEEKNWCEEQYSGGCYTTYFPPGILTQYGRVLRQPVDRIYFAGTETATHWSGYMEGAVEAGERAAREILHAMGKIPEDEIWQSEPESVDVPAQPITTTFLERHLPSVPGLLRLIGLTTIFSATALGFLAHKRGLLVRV
Chain of Bovine LOX (P33072 170-418): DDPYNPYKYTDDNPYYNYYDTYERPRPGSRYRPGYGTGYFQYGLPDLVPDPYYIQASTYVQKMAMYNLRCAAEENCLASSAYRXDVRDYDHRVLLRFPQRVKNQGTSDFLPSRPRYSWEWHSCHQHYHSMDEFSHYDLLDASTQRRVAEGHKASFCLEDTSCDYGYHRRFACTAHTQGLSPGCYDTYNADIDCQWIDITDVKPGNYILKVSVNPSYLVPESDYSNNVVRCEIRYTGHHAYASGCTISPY

On to `Cc1cnc2c(Cc3ccc(S(=O)(=O)N(C)C)cc3)c(C)n(C/C(F)=C/CN)c2c1` [Compound 11, (Z)-4-((1-(4-amino-2-fluorobut-2-en-1-yl)-2,6-dimethyl-1H-pyrrolo[3,2-b]pyridin-3-yl)methyl)-N,N-dimethylbenzenesulfonamide dihydrochloride], for which the IC50 in test [1] is > 3000 nM; in test [2], < 300 nM; in test [3], > 3000 nM; in test [4], > 300 nM.

Regarding `Cc1ccc2c(n1)c(Cc1ccc(S(C)(=O)=O)cc1)c(C)n2C/C(F)=C/CN` [Compound 12, (Z)-4-(2,5-dimethyl-3-(4-(methylsulfonyl)benzyl)-1H-pyrrolo[3,2-b]pyridin-1-yl)-3-fluorobut-2-en-1-amine dihydrochloride], the half-maximal inhibitory concentration (IC50) is > 3000 nM in test [1], < 300 nM in test [2], > 3000 nM in test [3] and > 300 nM in test [4].

On to `Cc1ccc2c(n1)c(Cc1ccc(S(C)(=O)=O)nc1)c(C)n2C/C(F)=C/CN` [Compound 13, (Z)-4-(2,5-dimethyl-3-((6-(methylsulfonyl)pyridin-3-yl)methyl)-1H-pyrrolo[3,2-b]pyridin-1-yl)-3-fluorobut-2-en-1-amine trihydrochloride], for which the IC50 in test [1] is > 3000 nM; in test [2], < 300 nM; in test [3], > 3000 nM; in test [4], > 300 nM.

Consider `Cc1ccc2c(n1)c(Cc1ccc(S(C)(=O)=O)cn1)c(C)n2C/C(F)=C/CN` [Compound 14, (Z)-4-(2,5-dimethyl-3-((5-(methylsulfonyl)pyridin-2-yl)methyl)-1H-pyrrolo[3,2-b]pyridin-1-yl)-3-fluorobut-2-en-1-amine trihydrochloride], for which the IC50 was > 3000 nM in test [1], < 300 nM in test [2], > 3000 nM in test [3] and > 300 nM in test [4].

For `Cc1ccc2c(n1)c(Cc1ccc(S(=O)(=O)N(C)C)cn1)c(C)n2C/C(F)=C/CN` [Compound 15, (Z)-6-((1-(4-amino-2-fluorobut-2-en-1-yl)-2,5-dimethyl-1H-pyrrolo[3,2-b]pyridin-3-yl)methyl)-N,N-dimethylpyridine-3-sulfonamide trihydrochloride], the IC50 in test [1] was > 3000 nM; in test [2], < 300 nM; in test [3] it was > 3000 nM; in test [4], > 300 nM.

Consider `Cc1ccc2c(n1)c(Cc1ccc(S(=O)(=O)N(C)C)nc1)c(C)n2C/C(F)=C/CN` [Compound 16, (Z)-5-((1-(4-amino-2-fluorobut-2-en-1-yl)-2,5-dimethyl-1H-pyrrolo[3,2-b]pyridin-3-yl)methyl)-N,N-dimethylpyridine-2-sulfonamide trihydrochloride], for which the 50% inhibitory concentration (IC50) was > 3000 nM in test [1], < 300 nM in test [2], > 3000 nM in test [3] and > 300 nM in test [4].

On to `Cc1ccc2c(n1)c(Cc1cccc(S(C)(=O)=O)c1)c(C)n2C/C(F)=C/CN` [Compound 17, (Z)-4-(2,5-dimethyl-3-(3-(methylsulfonyl)benzyl)-1H-pyrrolo[3,2-b]pyridin-1-yl)-3-fluorobut-2-en-1-amine dihydrochloride], for which the IC50 in test [1] is > 3000 nM; in test [2] it was < 300 nM; in test [3], > 3000 nM; in test [4], > 300 nM.

On to `Cc1c(Cc2cccc(S(=O)(=O)N(C)C)c2)c2ncccc2n1C/C(F)=C/CN` [Compound 18, dihydrochloride], for which the IC50 in test [1] is > 3000 nM; in test [2], < 300 nM; in test [3], > 3000 nM; in test [4], > 300 nM.

Regarding `Cc1cc2c(nc1O)c(Cc1ccc(S(=O)(=O)N(C)C)cc1)c(C)n2C/C(F)=C/CN` [Compound 19, (Z)-4-((1-(4-amino-2-fluorobut-2-en-1-yl)-5-hydroxy-2,6-dimethyl-1H-pyrrolo[3,2-b]pyridin-3-yl)methyl)-N,N-dimethylbenzenesulfonamide dihydrochloride], the half-inhibitory concentration (IC50) is > 3000 nM in test [1], < 300 nM in test [2], > 3000 nM in test [3] and > 300 nM in test [4].

Turning to `Cc1c(Cc2ccc(S(C)(=O)=O)cc2Cl)c2ncccc2n1C/C(F)=C/CN` [Compound 20, (Z)-4-(3-(2-chloro-4-(methylsulfonyl)benzyl)-2-methyl-1H-pyrrolo[3,2-b]pyridin-1-yl)-3-fluorobut-2-en-1-amine dihydrochloride], the half-inhibitory concentration (IC50) in test [1] was > 3000 nM; in test [2] it was < 300 nM; in test [3], > 3000 nM; in test [4], > 300 nM.

For `Cc1c(Oc2ccc(S(=O)(=O)N(C)C)cc2)c2ccccc2n1C/C(F)=C/CN` [Compound 21, (Z)-4-((1-(4-amino-2-fluorobut-2-en-1-yl)-2-methyl-1H-indol-3-yl)oxy)-N,N-dimethylbenzene-sulfonamide hydrochloride], the IC50 was > 3000 nM in test [1], < 300 nM in test [2], > 3000 nM in test [3] and > 300 nM in test [4].

As to `Cc1c(Cc2ccc(S(=O)(=O)N(C)C)cc2)c2nc(F)ccc2n1C/C(F)=C/CN` [Compound 23, (Z)-4-((1-(4-amino-2-fluorobut-2-en-1-yl)-5-fluoro-2-methyl-1H-pyrrolo[3,2-b]pyridin-3-yl)methyl)-N,N-dimethylbenzenesulfonamide dihydrochloride], the IC50 was > 3000 nM in test [1], < 300 nM in test [2], > 3000 nM in test [3] and > 300 nM in test [4].
